Laboratory results from patent US20100028395A1, “COMPOSITIONS CONTAINING N-ACETYLGLUCOSAMINE FOR USE IN DERMO-COSMETOLOGY AND AESTHETIC MEDICINE” (ROTTAPHARM S.P.A., priority 2007, published 2010).

What was measured:
[1] = test system: Human keratinocyte primary culture: HEKA; test: Stimulation of protein synthesis in human keratinocyte cultures (Lowry method); assay type: cell-based; details: keratinocytes
Procedure: (§1) The following have been used: • Human fibroblasts, Detroit 551 ATCC CCL III from LGC Promochem (Milan, Italy); • Human keratinocyte primary culture: HEKA, Cascade Biologics, cat. 005-5C. Test substances and concentrations
(§2) The substances and concentrations tested are those reported below (on both fibroblasts and keratinocytes): • CA: 0.13, 0.66, 1.32, and 2.64 mg/ml • NAG: 0.1, 0.5, 1.0, and 2.0 mg/ml
(§3) The method is identical to that already described for collagen and elastin with the difference that, following the addition of the test substances into the culture medium, the medium has been substituted daily for three days. Each sample has been tested in duplicate and the experiments have been repeated twice. The parameter of interest, i.e. protein synthesis, has been evaluated at 24, 48 and 72 hours on separate plates. Untreated cell cultures have been used as controls.
(§4) Protein has been assayed using the Lowry method [Lowry et al. 1951] consisting of a Biuret reduction reaction envisaging the use of Folin-Ciocalteau reagent as chromophore, with a yellow to blue colour change and spectrophotometric measurement at 750 nm [Creighton et al. 1984; Sengupta et al. 1993].
(§5) The protein content of the cultures in question has been obtained from comparison of their optical densities with a titration curve made using albumin as a protein standard.
(§6) Evaluation of the effect of the substances tested, at the various concentrations and times, on cultures of both fibroblasts and keratinocytes has been expressed in both absolute terms (expressed protein production in mg/ml) and as percentage increase or decrease with respect to control cultures.
(§7) The percentage difference increase or decrease of the effects exerted by CA and NAG, over various days and at the corresponding concentrations, have then been calculated, with evaluation of their potential statistical significance by means of the test Student “t” test.

[2] = test system: Human fibroblasts, Detroit 551 ATCC CCL III; test: Stimulation of collagen synthesis in human fibroblast cultures (Sircol assay); assay type: cell-based; details: 24 h
From the text: The scope of the test has been the evaluation and the comparison of the potential stimulation exerted by the test substances on the expression of collagen and elastin in “in vitro” cultures of skin-derived cells, such as fibroblasts. The test in question, even though conducted “in vitro”, can be considered to be predictive of the effects of use of the same substances “in vivo”. […] The samples have been dissolved directly in the culture medium. Each sample has been tested in duplicate and the experiments have been repeated twice. The parameters of interest have been determined after 24 hours on separate plates. Untreated cell cultures have been used as controls. A commercially available kit (Sircol™, biodye science) which uses the capacity of the stain Sirius Red to interact with the basic side chains of the aminoacids present in collagen itself, has been used for collagen assays. De novo collagen synthesis has been evaluated in the culture medium following treatment with the test substances, following the protocol provided with the kit, and by using the calibration curve obtained employing the collagen standard contained in turn in the kit. Evaluation of the effects of the substances tested, at the various concentrations, on fibroblast cultures, has been expressed as the absolute and percent increase or decrease of collagen and elastin expression, with respect to the corresponding control culture, after 24 hours of incubation. The percentage difference increase or decrease of the effects exerted by CA and NAG, at corresponding concentrations, have then been calculated, with consequent evaluation of their potential statistical significance by means of the test Student “t” test.

[3] = test system: MatTek Human Skin EpiDemFT skin model; details: addition of NAG to in vitro skin model; cited from earlier work
hyaluronate synthetase = details: plasma membrane fractions of human skin fibroblasts; cited from earlier work
[4] = test system: Human fibroblasts, Detroit 551 ATCC CCL III; test: Stimulation of protein synthesis in human fibroblast cultures (Lowry method); assay type: cell-based
Procedure: as §1, §2, §3, §4, §5, §6, §7

CC(=O)N[C@@H](C=O)[C@@H](O)[C@H](O)[C@H](O)CO [NAG, N-acetyl-2-amino-2 deoxyglucose]
Expr. prot. from NAG % incr. over baseline ([1]; NAG 0.10 mg/ml, 24 hours): −34.7%
Expr. prot. from NAG (mg/ml) - Mean +/− st. dev. ([1]; NAG 0.10 mg/ml, 24 hours): 0.16 ± 0.037 mg/mL
Expr. prot. from NAG (mg/ml) - Mean +/− st. dev. ([1]; NAG 0.10 mg/ml, 48 hours): 0.42 ± 0.15 mg/mL
Expr. prot. from NAG % incr. over baseline ([1]; NAG 0.10 mg/ml, 72 hours): +15.5%
Expr. prot. from NAG (mg/ml) - Mean +/− st. dev. ([1]; NAG 0.10 mg/ml, 72 hours): 0.67 ± 0.09 mg/mL
Expr. prot. from NAG % incr. over baseline ([1]; NAG 0.50 mg/ml, 24 hours): −10.2%
Expr. prot. from NAG (mg/ml) - Mean +/− st. dev. ([1]; NAG 0.50 mg/ml, 24 hours): 0.22 ± 0.039 mg/mL
Expr. prot. from NAG (mg/ml) - Mean +/− st. dev. ([1]; NAG 0.50 mg/ml, 48 hours): 0.40 ± 0.12 mg/mL
Expr. prot. from NAG % incr. over baseline ([1]; NAG 0.50 mg/ml, 72 hours): +10.3%
Expr. prot. from NAG (mg/ml) - Mean +/− st. dev. ([1]; NAG 0.50 mg/ml, 72 hours): 0.64 ± 0.12 mg/mL
Expr. prot. from NAG % incr. over baseline ([1]; NAG 1.00 mg/ml, 24 hours): +44.9%
Expr. prot. from NAG (mg/ml) - Mean +/− st. dev. ([1]; NAG 1.00 mg/ml, 24 hours): 0.36 ± 0.047 mg/mL
Expr. prot. from NAG % incr. over baseline ([1]; NAG 1.00 mg/ml, 48 hours): +41.2%
Expr. prot. from NAG (mg/ml) - Mean +/− st. dev. ([1]; NAG 1.00 mg/ml, 48 hours): 0.48 ± 0.11 mg/mL
Expr. prot. from NAG % incr. over baseline ([1]; NAG 1.00 mg/ml, 72 hours): +20.7%
Expr. prot. from NAG (mg/ml) - Mean +/− st. dev. ([1]; NAG 1.00 mg/ml, 72 hours): 0.70 ± 0.08 mg/mL
Expr. prot. from NAG (mg/ml) - Mean +/− st. dev. ([1]; NAG 2.00 mg/ml, 24 hours): 0.38 ± 0.050 mg/mL
Expr. prot. from NAG % incr. over baseline ([1]; NAG 2.00 mg/ml, 48 hours): +38.2%
Expr. prot. from NAG (mg/ml) - Mean +/− st. dev. ([1]; NAG 2.00 mg/ml, 48 hours): 0.47 ± 0.12 mg/mL
Expr. prot. from NAG % incr. over baseline ([1]; NAG 2.00 mg/ml, 72 hours): +43.1%
Expr. prot. from NAG (mg/ml) - Mean +/− st. dev. ([1]; NAG 2.00 mg/ml, 72 hours): 0.83 ± 0.070 mg/mL
Collagen (%) (Diff. from baseline) ([2]; NAG 0.50 mg/ml): +1.64%
Collagen(μg/ml) (Diff. from baseline) ([2]; NAG 0.50 mg/ml): +0.07 μg/ml
Collagen (%) (Diff. from baseline) ([2]; NAG 1.00 mg/ml): +30.28%
Collagen(μg/ml) (Diff. from baseline) ([2]; NAG 1.00 mg/ml): +1.29 μg/ml
Collagen (%) (Diff. from baseline) ([2]; NAG 1.50 mg/ml): +36.15%
Collagen(μg/ml) (Diff. from baseline) ([2]; NAG 1.50 mg/ml): +1.54 μg/ml
Collagen (%) (Diff. from baseline) ([2]; NAG 2.00 mg/ml): +32.86%
Collagen(μg/ml) (Diff. from baseline) ([2]; NAG 2.00 mg/ml): +1.33 μg/ml
Collagen (%) (Diff. from baseline) ([2]; NAG 2.50 mg/ml): +47.65%
Collagen(μg/ml) (Diff. from baseline) ([2]; NAG 2.50 mg/ml): +2.03 μg/ml
increase of HA [3]: very high, significant and dose dependent increase
increase of pro-collagen 1 [3]: very high, significant and dose dependent increase
activity of the enzyme hyaluronate synthetase (hyaluronate synthetase): stimulates
Expr. prot. from NAG % incr. over baseline ([4]; NAG 0.10 mg/ml, 24 hours): −14.6%
Expr. prot. from NAG (mg/ml) - Mean +/− st. dev. ([4]; NAG 0.10 mg/ml, 24 hours): 0.70 ± 0.11 mg/mL
Expr. prot. from NAG % incr. over baseline ([4]; NAG 0.10 mg/ml, 48 hours): −7.8%
Expr. prot. from NAG (mg/ml) - Mean +/− st. dev. ([4]; NAG 0.10 mg/ml, 48 hours): 0.95 ± 0.08 mg/mL
Expr. prot. from NAG % incr. over baseline ([4]; NAG 0.10 mg/ml, 72 hours): −6.4%
Expr. prot. from NAG (mg/ml) - Mean +/− st. dev. ([4]; NAG 0.10 mg/ml, 72 hours): 1.03 ± 0.18 mg/mL
Expr. prot. from NAG % incr. over baseline ([4]; NAG 0.50 mg/ml, 24 hours): +31.7%
Expr. prot. from NAG (mg/ml) - Mean +/− st. dev. ([4]; NAG 0.50 mg/ml, 24 hours): 1.08 ± 0.29 mg/mL
Expr. prot. from NAG % incr. over baseline ([4]; NAG 0.50 mg/ml, 48 hours): −9.7%
Expr. prot. from NAG (mg/ml) - Mean +/− st. dev. ([4]; NAG 0.50 mg/ml, 48 hours): 0.93 ± 0.08 mg/mL
Expr. prot. from NAG % incr. over baseline ([4]; NAG 0.50 mg/ml, 72 hours): +3.6%
Expr. prot. from NAG (mg/ml) - Mean +/− st. dev. ([4]; NAG 0.50 mg/ml, 72 hours): 1.14 ± 0.16 mg/mL
Expr. prot. from NAG % incr. over baseline ([4]; NAG 1.00 mg/ml, 24 hours): +35.4%
Expr. prot. from NAG (mg/ml) - Mean +/− st. dev. ([4]; NAG 1.00 mg/ml, 24 hours): 1.11 ± 0.22 mg/mL
Expr. prot. from NAG % incr. over baseline ([4]; NAG 1.00 mg/ml, 48 hours): −21.4%
Expr. prot. from NAG (mg/ml) - Mean +/− st. dev. ([4]; NAG 1.00 mg/ml, 48 hours): 0.81 ± 0.11 mg/mL
Expr. prot. from NAG % incr. over baseline ([4]; NAG 1.00 mg/ml, 72 hours): −5.5%
Expr. prot. from NAG (mg/ml) - Mean +/− st. dev. ([4]; NAG 1.00 mg/ml, 72 hours): 1.04 ± 0.20 mg/mL
Expr. prot. from NAG (mg/ml) - Mean +/− st. dev. ([4]; NAG 2.00 mg/ml, 24 hours): 1.24 ± 0.17 mg/mL
Expr. prot. from NAG % incr. over baseline ([4]; NAG 2.00 mg/ml, 48 hours): +6.8%
Expr. prot. from NAG (mg/ml) - Mean +/− st. dev. ([4]; NAG 2.00 mg/ml, 48 hours): 1.10 ± 0.20 mg/mL
Expr. prot. from NAG % incr. over baseline ([4]; NAG 2.00 mg/ml, 72 hours): +0.91%
Expr. prot. from NAG (mg/ml) - Mean +/− st. dev. ([4]; NAG 2.00 mg/ml, 72 hours): 1.11 ± 0.19 mg/mL
